Experimental data: article PMC7531004, “Discovery of gramicidin A analogues with altered activities by multidimensional screening of a one-bead-one-compound library” (Nature Communications, 2020)
Where a SMILES comes first, the peptide text is derived from it. [ ]: non-standard residue; d: D form. The star is where a group is joined. NHCH2CH2OH = OCCN*; For = O=C*

Experiments:
[1] = system: Streptococcus pyogenes SSI-9; assay: Antibacterial activity assay of bead-derived peptides (three concentrations); assay type: cell-based; design: key: +++: inhibition by the 640-fold diluted peptide solution; ++: inhibition by the 160-fold diluted solution; +: inhibition by the 40-fold diluted solution; -: no inhibition; details: S. pyogenes, bead-derived peptide solution, three concentrations
Method in brief: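 Three stock dilutions per peptide (none, 4-fold, 16-fold in DMSO) are screened in 96-well format. The medium is blood-supplemented cation-adjusted MHB, inoculated with 2 × 10^5 CFU S. pyogenes SSI-9. Growth is read as cell precipitation at 18 h, 37 °C.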

[2] = cell viability/%
Method in brief: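 First, library peptide stocks are diluted 250-fold in RPMI1640 with 10% heat-inactivated FBS. Next, they are mixed with P388 cells to give 1 × 10^4 cells/mL and incubated 92 h at 37 °C, 5% CO2. Finally, viability (%) is scored by WST-1 absorbance at 415 nm.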

[3] = H+/Na+ transport assay of bead-derived peptides (one-point); assay type: biochemical; design: key: relative activity; mean of two control wells = 1.00; details: bead-derived peptide solution, EYPC/EYPG LUVs;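 further: relative to parent gramicidin A activity set to 1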
Method in brief: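 Pyranine (1.0 mM)-loaded LUVs containing egg yolk phosphatidylglycerol were prepared by film hydration, sonication and extrusion, then mixed with diluted bead-derived peptide in 96-well format and vortexed 30 min at room temperature. Fluorescence was normalized between untreated LUVs (0%) and Triton X-100 lysis (100%).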

SMILES	antibacterial activity [1]	viability [2] [%]	H+/Na+ transport activity normalized against the value of 1 (1.00) [3]
CC(C)C[C@@H](NC(=O)[C@H](C)NC(=O)[C@H](NC(=O)[C@H](C)NC(=O)CNC(=O)[C@@H](NC=O)C(C)C)C(C)C)C(=O)N[C@H](C(=O)N[C@H](CC(C)C)C(=O)N[C@@H](Cc1c[nH]c2ccccc12)C(=O)N[C@@H](C(=O)N[C@@H](Cc1c[nH]c2ccccc12)C(=O)N[C@@H](C(=O)N[C@@H](Cc1c[nH]c2ccccc12)C(=O)N[C@H](CC(C)C)C(=O)N[C@@H](Cc1c[nH]c2ccccc12)C(=O)NCCO)C(C)C)[C@H](C)O)C(C)C [compound 5572] (For-VGA[dV]A[dL]V[dL]W[dT]W[dV]W[dL]W-NHCH2CH2OH)	+	100	1.24
CNC(=O)C[C@@H](NC(=O)[C@@H](NC(=O)[C@H](NC(=O)[C@H](C)NC(=O)[C@H](NC(=O)[C@H](C)NC(=O)CNC(=O)[C@@H](NC=O)C(C)C)C(C)C)C(C)C)C(C)C)C(=O)N[C@@H](Cc1c[nH]c2ccccc12)C(=O)N[C@H](CC(C)C)C(=O)N[C@@H](Cc1c[nH]c2ccccc12)C(=O)N[C@@H](C(=O)N[C@@H](Cc1c[nH]c2ccccc12)C(=O)N[C@@H](C(=O)N[C@@H](Cc1c[nH]c2ccccc12)C(=O)NCCO)C(C)C)C(C)C [compound 5536] (For-VGA[dV]A[dV]V[dD](NHMe)W[dL]W[dV]W[dV]W-NHCH2CH2OH)	-	100	1.45
CC(C)C[C@@H](NC(=O)[C@H](C)NC(=O)[C@H](NC(=O)[C@H](C)NC(=O)CNC(=O)[C@@H](NC=O)C(C)C)[C@H](C)O)C(=O)N[C@H](C(=O)N[C@@H](C(=O)N[C@@H](Cc1c[nH]c2ccccc12)C(=O)N[C@H](CC(C)C)C(=O)N[C@@H](Cc1c[nH]c2ccccc12)C(=O)N[C@@H](C(=O)N[C@@H](Cc1c[nH]c2ccccc12)C(=O)N[C@H](CC(C)C)C(=O)N[C@@H](Cc1c[nH]c2ccccc12)C(=O)NCCO)C(C)C)C(C)C)C(C)C [compound 10313] (For-VGA[dT]A[dL]V[dV]W[dL]W[dV]W[dL]W-NHCH2CH2OH)	-	100	1.11
CC(C)C[C@@H](NC(=O)[C@H](C)NC(=O)[C@H](NC(=O)[C@H](C)NC(=O)CNC(=O)[C@@H](NC=O)C(C)C)[C@H](C)O)C(=O)N[C@H](C(=O)N[C@H](CC(C)C)C(=O)N[C@@H](Cc1c[nH]c2ccccc12)C(=O)N[C@@H](C(=O)N[C@@H](Cc1c[nH]c2ccccc12)C(=O)N[C@H](CC(C)C)C(=O)N[C@@H](Cc1c[nH]c2ccccc12)C(=O)N[C@@H](C(=O)N[C@@H](Cc1c[nH]c2ccccc12)C(=O)NCCO)[C@H](C)O)C(C)C)C(C)C [compound 3130] (For-VGA[dT]A[dL]V[dL]W[dV]W[dL]W[dT]W-NHCH2CH2OH)	-	100	1.05
CC(C)C[C@@H](NC(=O)[C@H](Cc1c[nH]c2ccccc12)NC(=O)[C@H](NC(=O)[C@H](Cc1c[nH]c2ccccc12)NC(=O)[C@@H](CC(C)C)NC(=O)[C@@H](NC(=O)[C@H](NC(=O)[C@H](C)NC(=O)[C@H](NC(=O)[C@H](C)NC(=O)CNC(=O)[C@@H](NC=O)C(C)C)[C@H](C)O)C(C)C)C(C)C)[C@H](C)O)C(=O)N[C@@H](Cc1c[nH]c2ccccc12)C(=O)N[C@@H](C(=O)N[C@@H](Cc1c[nH]c2ccccc12)C(=O)NCCO)C(C)C [compound 13245] (For-VGA[dT]A[dV]V[dL]W[dT]W[dL]W[dV]W-NHCH2CH2OH)	-	100	1.07
CC(C)C[C@@H](NC(=O)[C@H](C)NC(=O)CNC(=O)[C@@H](NC=O)C(C)C)C(=O)N[C@@H](C)C(=O)N[C@@H](C(=O)N[C@H](C(=O)N[C@@H](C(=O)N[C@@H](Cc1c[nH]c2ccccc12)C(=O)N[C@H](CC(C)C)C(=O)N[C@@H](Cc1c[nH]c2ccccc12)C(=O)N[C@@H](C(=O)N[C@@H](Cc1c[nH]c2ccccc12)C(=O)N[C@@H](C(=O)N[C@@H](Cc1c[nH]c2ccccc12)C(=O)NCCO)C(C)C)C(C)C)[C@H](C)O)C(C)C)C(C)C [compound 10400] (For-VGA[dL]A[dV]V[dT]W[dL]W[dV]W[dV]W-NHCH2CH2OH)	-	100	1.04
CC(C)C[C@@H](NC(=O)[C@H](C)NC(=O)CNC(=O)[C@@H](NC=O)C(C)C)C(=O)N[C@@H](C)C(=O)N[C@H](CC(C)C)C(=O)N[C@H](C(=O)N[C@@H](C(=O)N[C@@H](Cc1c[nH]c2ccccc12)C(=O)N[C@H](CC(C)C)C(=O)N[C@@H](Cc1c[nH]c2ccccc12)C(=O)N[C@@H](C(=O)N[C@@H](Cc1c[nH]c2ccccc12)C(=O)N[C@@H](C(=O)N[C@@H](Cc1c[nH]c2ccccc12)C(=O)NCCO)C(C)C)C(C)C)[C@H](C)O)C(C)C [compound 8130] (For-VGA[dL]A[dL]V[dT]W[dL]W[dV]W[dV]W-NHCH2CH2OH)	-	100	1.17
CC(C)C[C@@H](NC(=O)[C@H](C)NC(=O)CNC(=O)[C@@H](NC=O)C(C)C)C(=O)N[C@@H](C)C(=O)N[C@H](CC(C)C)C(=O)N[C@H](C(=O)N[C@H](CC(C)C)C(=O)N[C@@H](Cc1c[nH]c2ccccc12)C(=O)N[C@@H](C(=O)N[C@@H](Cc1c[nH]c2ccccc12)C(=O)N[C@H](CC(C)C)C(=O)N[C@@H](Cc1c[nH]c2ccccc12)C(=O)N[C@@H](C(=O)N[C@@H](Cc1c[nH]c2ccccc12)C(=O)NCCO)C(C)C)[C@H](C)O)C(C)C [compound 5561] (For-VGA[dL]A[dL]V[dL]W[dT]W[dL]W[dV]W-NHCH2CH2OH)	-	100	1.05
CC(C)C[C@@H](NC(=O)[C@H](C)NC(=O)[C@H](NC(=O)[C@H](C)NC(=O)CNC(=O)[C@@H](NC=O)C(C)C)C(C)C)C(=O)N[C@H](C(=O)N[C@@H](C(=O)N[C@@H](Cc1c[nH]c2ccccc12)C(=O)N[C@@H](C(=O)N[C@@H](Cc1c[nH]c2ccccc12)C(=O)N[C@@H](C(=O)N[C@@H](Cc1c[nH]c2ccccc12)C(=O)N[C@H](CC(C)C)C(=O)N[C@@H](Cc1c[nH]c2ccccc12)C(=O)NCCO)C(C)C)C(C)C)C(C)C)C(C)C [compound 437] (For-VGA[dV]A[dL]V[dV]W[dV]W[dV]W[dL]W-NHCH2CH2OH)	+	100	1.11
CC(C)C[C@@H](NC(=O)[C@H](C)NC(=O)CNC(=O)[C@@H](NC=O)C(C)C)C(=O)N[C@@H](C)C(=O)N[C@@H](C(=O)N[C@H](C(=O)N[C@@H](C(=O)N[C@@H](Cc1c[nH]c2ccccc12)C(=O)N[C@@H](C(=O)N[C@@H](Cc1c[nH]c2ccccc12)C(=O)N[C@@H](C(=O)N[C@@H](Cc1c[nH]c2ccccc12)C(=O)N[C@H](CC(C)C)C(=O)N[C@@H](Cc1c[nH]c2ccccc12)C(=O)NCCO)C(C)C)[C@H](C)O)C(C)C)C(C)C)C(C)C [compound 2207] (For-VGA[dL]A[dV]V[dV]W[dT]W[dV]W[dL]W-NHCH2CH2OH)	-	100	1.18
CNC(=O)C[C@@H](NC(=O)[C@H](C)NC(=O)CNC(=O)[C@@H](NC=O)C(C)C)C(=O)N[C@@H](C)C(=O)N[C@H](CC(C)C)C(=O)N[C@H](C(=O)N[C@@H](C(=O)N[C@@H](Cc1c[nH]c2ccccc12)C(=O)N[C@H](CC(C)C)C(=O)N[C@@H](Cc1c[nH]c2ccccc12)C(=O)N[C@H](CC(C)C)C(=O)N[C@@H](Cc1c[nH]c2ccccc12)C(=O)N[C@H](CC(C)C)C(=O)N[C@@H](Cc1c[nH]c2ccccc12)C(=O)NCCO)C(C)C)C(C)C [compound 8038] (For-VGA[dD](NHMe)A[dL]V[dV]W[dL]W[dL]W[dL]W-NHCH2CH2OH)	-	100	1.04
CC(C)C[C@@H](NC(=O)[C@H](C)NC(=O)CNC(=O)[C@@H](NC=O)C(C)C)C(=O)N[C@@H](C)C(=O)N[C@@H](C(=O)N[C@H](C(=O)N[C@H](CC(C)C)C(=O)N[C@@H](Cc1c[nH]c2ccccc12)C(=O)N[C@H](CC(C)C)C(=O)N[C@@H](Cc1c[nH]c2ccccc12)C(=O)N[C@H](CC(C)C)C(=O)N[C@@H](Cc1c[nH]c2ccccc12)C(=O)N[C@@H](C(=O)N[C@@H](Cc1c[nH]c2ccccc12)C(=O)NCCO)[C@H](C)O)C(C)C)C(C)C [compound 1975] (For-VGA[dL]A[dV]V[dL]W[dL]W[dL]W[dT]W-NHCH2CH2OH)	+	100	1.04
CNC(=O)C[C@@H](NC(=O)[C@@H](NC(=O)[C@@H](CC(C)C)NC(=O)[C@H](C)NC(=O)[C@@H](CC(C)C)NC(=O)[C@H](C)NC(=O)CNC(=O)[C@@H](NC=O)C(C)C)C(C)C)C(=O)N[C@@H](Cc1c[nH]c2ccccc12)C(=O)N[C@@H](C(=O)N[C@@H](Cc1c[nH]c2ccccc12)C(=O)N[C@H](CC(C)C)C(=O)N[C@@H](Cc1c[nH]c2ccccc12)C(=O)N[C@@H](C(=O)N[C@@H](Cc1c[nH]c2ccccc12)C(=O)NCCO)[C@H](C)O)C(C)C [compound 3280] (For-VGA[dL]A[dL]V[dD](NHMe)W[dV]W[dL]W[dT]W-NHCH2CH2OH)	-	100	1.20
